Reference: patent US8765683B2, “T-140 peptide analogs having CXCR4 super-agonist activity for cancer therapy” (Biokine Therapeutics Ltd., priority 2006, dated 2014)
Bridge positions count the residues as written; N and C are the ends. Square brackets hold non-standard residues; d marks the D form. Peptide text beside a SMILES is read from it. * marks the point of attachment. 2Nal = N[C@@H](Cc1ccc2ccccc2c1)C(=O)O; Benzoyl(4-F) = O=C(c1ccc(F)cc1)*; Cit = NC(=O)NCCC[C@H](N)C(=O)O

Tests used:
PC3-CXCR4.5 cells [1] = test: MIP3α secretion by PC3-CXCR4.5 cells (ELISA); format: cell-based
Protocol: (§1) In this example, regulation of the chemokine MIP3α (macrophage inflammatory protein 3α) was examined. […] In FIG. 1B, PC3 (left panel) and PC3-CXCR4.5 (right panel) cells were stimulated with the indicated concentrations of CXCL12 for 48 hours and MIP3α secretion was assessed by ELISA. The results represent the average of triplicates±STDEV.
(§2) The effects of the CXCR4 antagonist AMD3100 and of 4F-benzoyl-TN14003 (4FB-TN14003), hitherto known as a CXCR4 antagonist, on MIP3α secretion were further tested. […] In FIG. 1C, CXCR4 signaling in PC3 (left panel) and PC3-CXCR4.5 (right panel) cells was inhibited with anti-CXCL12 antibodies (αCXCL12) and Pertussis toxin (PTX) treatments alone or in combination with CXCL12, as indicated. Secretion of MIP3α was assessed by ELISA. The results represent the average of triplicates±STDEV.

[2] = system: human primary keratinocytes; test: Proliferation and survival of keratinocytes; format: cell-based; conditions: AMD-3100 20 μM; 4F-benzoyl-TN14003 4-20 μM
Protocol: (§3) The effect of CXCR4 antagonists on the survival of freshly isolated normal CD4^+ T cells, CD34^+ stem cells and keratinocytes was examined. The proliferation and survival of keratinocytes was not inhibited by CXCR4 antagonists AMD-3100 (20 μM) and 4F-benzoyl-TN14003 (4-20 μM) or the natural ligand CXCL12 (FIG. 2C). The proliferation and survival of CD4^+ T cells was not inhibited by CXCR4 antagonists AMD-3100 (20 μM).

human CD4+ T cells = test: Proliferation and survival of CD4+ T cells; format: cell-based; conditions: AMD-3100 20 μM; 4F-benzoyl-TN14003 4-20 μM
Protocol: as §3

PC3 cells [3] = test: Proliferation of PC3 prostate tumor cells; format: cell-based
Protocol: (§4) Next, the effect of the CXCR4 modulators on PC3 and PC3-CXCR4.5 prostate tumor cells was tested. […] The proliferation induced by 4F-benzoyl-TN14003 was dose-dependent (FIG. 3B).

PC3-CXCR4.5 cells [4] = test: Proliferation of PC3-CXCR4.5 prostate tumor cells; format: cell-based
Protocol: as §4

SKBR3 = test: Proliferation of SKBR3 breast carcinoma cells; format: cell-based
22Rv1 = test: Proliferation of 22Rv1 prostate carcinoma cells; format: cell-based
U-87 = test: Proliferation of U-87 glioblastoma cells; format: cell-based
K562 cells = test: Proliferation and apoptosis (Annexin V) of CML K562 cells; format: cell-based, human; conditions: K562 (low CXCR4); 4F-benzoyl-TN14003 4-20 μM
Source text: (§5) The proliferation and survival of the CML K562 cells or K562 cells that over-express CXCR4 (indicated “CXCR4 high” or “K562-CXCR4”) was first studied.

K562-CXCR4 = test: Proliferation and apoptosis (Annexin V) of K562 cells over-expressing CXCR4; format: cell-based, human; conditions: K562 high CXCR4; 4F-benzoyl-TN14003 4-20 μM
Source text: as §5

HL-60 cells = test: Proliferation and apoptosis (Annexin V) of HL-60 cells; format: cell-based, human
NB4 cells = test: Proliferation of NB4 AML cells; format: cell-based, human
ARH77 = test: Proliferation and apoptosis (annexin) of ARH77 MM cells; format: cell-based, human; conditions: 4F-benzoyl-TN14003 0.4-40 μM
U266 = test: Proliferation and apoptosis (annexin) of U266 MM cells; format: cell-based, human; conditions: 4F-benzoyl-TN14003 0.4-40 μM
NCI human MM cells = test: Proliferation and apoptosis (annexin) of NCI MM cells; format: cell-based; conditions: 4F-benzoyl-TN14003 0.4-40 μM
Jurkat cells = test: Migration of Jurkat cells in response to CXCL12; format: cell-based, human; conditions: CXCL12 50 ng/ml; peptide incubated with Proteinase K
Source text: AMD3100 was purchased from Sigma, Israel.

[5] = system: BM derived CD138+ MM cells; test: Survival and apoptosis of BM derived cells of MM patients; format: cell-based, human
BM derived CD34+ cells = test: Survival of CD34+ cells in BM samples of MM patients; format: cell-based, human; conditions: 8 μM, 24 hr
U87 glioma cells = test: Survival and death of U87 glioma cells (Annexin V); format: cell-based
Protocol: U87 cells were treated with 4F-benzoyl-TN14003 and tested for their survival (FIG. 15A) and death (FIG. 15B).

human NB4 leukemic cells = test: NB4 leukemic xenograft model; format: in vivo, nude mice
Protocol: Acute promyelocytic leukemia (APL)-derived NB4 cell is extensively used as an in vitro and in vivo model system for studying human leukemia. To investigate the therapeutic anti-tumor potential of the CXCR4 antagonist 4F-benzoyl-TN14003 against human leukemic cells, 10×10^6 NB4 cells were injected subcutaneously (s.c) into immunodeficient nude mice (n=5). After 14 days, tumors were established at the size of 0.4 cm^2, and mice were divided into 4F-benzoyl-TN14003-treated (8 mg/Kg, open squares) and PBS-treated (control, full diamonds) groups. The 4F-benzoyl-TN14003 drug solution was administered intraperitoneal (i.p) each day for 5 days, followed by 2 days without drug, and then 4 additional daily injections (total of 9 injections, FIG. 16).
To further test the effect of 4F-benzoyl-TN14003 against human leukemic cells, 5×10^6 NB4 cells were injected subcutaneously (s.c) into immunodeficient nude mice (n=5). After 14 days, tumors were very small, at the size of 0.02 cm^2, and mice were divided into 4F-benzoyl-TN14003-treated (open squares) and PBS-treated (control, full diamonds) groups. The 4F-benzoyl-TN14003 drug solution was administered subcutaneously (8 mg/Kg) each day for 4 days (total of 4 injections, FIG. 17A). On day 20, all control mice developed tumors (0.49±0.1 cm^2), whereas in the treated mouse group, only 1 mouse developed a small tumor.
On day 31, all control mice developed big tumors in size (FIG. 17A) and weight (FIG. 17B), whereas in the treated group, 4/5 mice developed smaller tumors in size and weight.

K562L cells = test: K562L (luciferase) CML model, CCCD camera; format: in vivo, NOD/SCID mice
Protocol: In order to monitor the progression and localization of leukemic cells in vivo, the human CML tumor cell lines K562 (K562L) was stably transduced with a retrovirus carrying the luciferase gene. This cell line was injected IP into NOD/SCID mice (2.5×10^5, 5×10^5, 10^6, 2×10^6 per mouse; FIGS. 18 A-D, respectively) that were pretreated with a sub-lethal dose of radiation in order to diminish any natural killer cell activity and enhance acceptance of the tumor cells. Twenty-four hr after injection of the cells, the light generated internally by the luciferase expressed in the tumor cells and then transmitted through the animal's tissues was monitored externally using a cooled charge-coupled device camera (CCCD). The substrate luciferin was provided exogenously via IP injection. […] Quantitation was achieved by integrating the signal intensity using the Metaview software.
Two therapeutic approaches were studied using this model. […] In addition, the effect of 4F-benzoyl-TN14003 on the growth of cells in vivo was investigated.
Further, the effect of 4F-benzoyl-TN14003 on K562L tumor development was studied. 4F-benzoyl-TN14003 was injected i.p into NOD/SCID mice in the amount of 4 mg/Kg per mouse/per injection. The first injection of 4F-benzoyl-TN14003 was given immediately after the injection of K562-luc cells in an opposite route of injection on the peritoneum. Further injections of 4F-benzoyl-TN14003 were given every three days. Mice were monitored under the CCCD camera, 24 hr after each injection at serial time points, every three days.
4F-benzoyl-TN14003 was injected i.p into NOD/SCID mice in the amount of 2 mg/Kg whereas AMD-3100 was injected 4 mg/Kg per mouse/per injection. The first injection was given 2 days after the injection of K562-luc cells. Further injections were given on days 5, 7 and 11. Mice (n=3) were monitored under the CCCD camera on day 17 after injection of cells.

[6] = system: human CD34+ hematopoietic stem cells; conditions: AMD-3100 20 μM
PC3 cells [7] = test: MIP3α secretion by PC3 cells (ELISA); format: cell-based
Protocol: as §1, §2

Compound: N=C(N)NCCC[C@H](NC(=O)[C@@H]1CSSC[C@H](NC(=O)[C@H](Cc2ccc3ccccc3c2)NC(=O)[C@H](CCCNC(=N)N)NC(=O)[C@H](CCCNC(=N)N)NC(=O)c2ccc(F)cc2)C(=O)N[C@@H](Cc2ccc(O)cc2)C(=O)N[C@@H](CCCNC(N)=O)C(=O)N[C@@H](CCCCN)C(=O)N[C@H](CCCCN)C(=O)N2CCC[C@H]2C(=O)N[C@@H](Cc2ccc(O)cc2)C(=O)N[C@@H](CCCNC(=N)N)C(=O)N[C@@H](CCCNC(N)=O)C(=O)N1)C(N)=O [4F-benzoyl-TN14003, 4F-benzoyl-Arg-Arg-Nal-Cys-Tyr-Cit-Lys-DLys-Pro-Tyr-Arg-Cit-Cys-Arg-NH2] ({Benzoyl(4-F)}-RR[2Nal]CY[Cit]K[dK]PYR[Cit]CR-NH2; disulfide 4-13)
- MIP3α secretion (PC3-CXCR4.5 cells [1]; ELISA): induced in both cell lines MIP3α secretion in an agonist manner
- proliferation and survival of keratinocytes [2]: not inhibited
- proliferation and survival of CD4+ T cells (human CD4+ T cells): induced T cell proliferation
- proliferation (PC3 cells [3]): induced the proliferation of prostate cancer cells
- proliferation (PC3-CXCR4.5 cells [4]): induced the proliferation of prostate cancer cells
- proliferation (SKBR3): either stimulated or not affected
- proliferation (22Rv1): either stimulated or not affected
- proliferation (U-87): either stimulated or not affected
- apoptotic cell death (Annexin V assay) (K562 cells): stimulated apoptotic cell death
- growth (K562 cells): inhibited the growth
- apoptotic cell death (Annexin V assay) (K562-CXCR4): stimulated apoptotic cell death
- growth (K562-CXCR4): inhibited the growth
- apoptotic cell death (Annexin V assay) (HL-60 cells; 4F-benzoyl-TN14003 4-20 μM): stimulate apoptotic cell death
- growth (HL-60 cells; 4F-benzoyl-TN14003 4-20 μM): inhibit the growth
- sensitivity of NB4 cells (inhibitory effect) (NB4 cells; compared with HL-60): less sensitive
- apoptotic cell death (annexin assay) (ARH77): stimulated apoptotic cell death
- growth (ARH77): inhibited the growth
- apoptotic cell death (annexin assay) (U266): stimulated apoptotic cell death
- growth (U266): inhibited the growth
- apoptotic cell death (annexin assay) (NCI human MM cells): stimulated apoptotic cell death
- growth (NCI human MM cells): inhibited the growth
- activity on migration of Jurkat cells in response to CXCL12 after treatment of the peptide with proteinease K (Jurkat cells): abolished the activity of the peptide
- apoptosis of CD138+ MM cells ([5]; 8 μM, 24 hr): induced apoptosis
- sensitivity of normal BM samples or BM samples with low percentage of MM cells ([5]; freshly isolated BM cells): not sensitive to treatment
- sensitivity of BM derived samples with high percentage of MM ([5]; freshly isolated BM cells of MM patients): sensitive to treatment
- percentage of CD34+ cells (BM derived CD34+ cells): remained unaffected
- tumor cell death of glioma cells (U87 glioma cells): induce tumor cell death
- mice that developed smaller tumors in size and weight on day 31 (human NB4 leukemic cells; 8 mg/Kg s.c. each day for 4 days): 4/5
- mice that developed a tumor on day 20 (human NB4 leukemic cells; 8 mg/Kg s.c. each day for 4 days, n=5, all control mice developed tumors): 1
- tumor growth (human NB4 leukemic cells; established tumors 0.4 cm^2, 8 mg/Kg i.p., 9 injections): tumor growth was arrested
- inhibition in K562L tumor development (K562L cells; 2 mg/Kg i.p. days 2, 5, 7, 11, day 17, FIG. 21): > 90%
- inhibition in K562L tumor development over time (K562L cells; 4 mg/Kg i.p. every three days, FIG. 20): 50%

Compound: c1cc(CN2CCCNCCNCCCNCC2)ccc1CN1CCCNCCNCCCNCC1 [AMD-3100, reference compound]
- proliferation and survival of keratinocytes [2]: not inhibited
- proliferation and survival of CD4+ T cells (human CD4+ T cells): not inhibited
- proliferation (PC3 cells [3]): induced the proliferation of prostate cancer cells
- proliferation (PC3-CXCR4.5 cells [4]): induced the proliferation of prostate cancer cells
- proliferation (SKBR3): either stimulated or not affected
- proliferation (22Rv1): either stimulated or not affected
- proliferation (U-87): either stimulated or not affected
- effect of pretreatment with AMD-3100 on the effect of 4F-benzoyl-TN14003 (HL-60 cells; AMD-3100 50 μM pretreatment): abolished the effect of 4F-benzoyl-TN14003
- effect of pretreatment with AMD-3100 on the inhibitory effect of 4F-benzoyl-TN14003 (NB4 cells; NB4 cells): abolished
- CD34+ stem cell numbers [6]: did not affect cell numbers

Compound: Cc1ccc(NC(=O)c2ccc(CN3CCN(C)CC3)cc2)cc1Nc1nccc(-c2cccnc2)n1 [STI571]
- tumor development of K562L cells (K562L cells; 40 mg/Kg IP, FIG. 20): inhibit tumor development
- signal intensities over time (K562L cells; 40 mg/Kg, FIG. 19): significant reduction in signal intensities

Compound: CXCL12: chemokine, CXCR4's only natural ligand
- proliferation and survival of keratinocytes [2]: not inhibited
- proliferation and survival of CD4+ T cells (human CD4+ T cells): induced T cell proliferation
- proliferation (PC3 cells [3]): induced the proliferation of prostate cancer cells
- proliferation (PC3-CXCR4.5 cells [4]): induced the proliferation of prostate cancer cells
- proliferation (SKBR3): either stimulated or not affected
- proliferation (22Rv1): either stimulated or not affected
- proliferation (U-87): either stimulated or not affected
- CD34+ stem cell numbers [6]: did not affect cell numbers

Compound: Pertussis toxin
- MIP3α secretion (PC3 cells [7]): effectively inhibited the secretion of MIP3α
- MIP3α secretion (PC3-CXCR4.5 cells [1]; ELISA): secretion of MIP3α was decreased
- MIP3α secretion (PC3-CXCR4.5 cells [1]; PTX in combination with CXCL12): did not demonstrate an inhibitory effect
